Active and inactive are the calls of the source. The calls are words filed in the database; no cut-off is given here.
How the values were obtained:
Rh41 [1] = test: Induction of cell cycle arrest in human Rh41 cells assessed as accumulation of cells at G2/M phase by measuring >4N DNA content at 10x IC50 incubated for 24 hrs by propidium iodide staining based flow cytometry analysis; assay type: functional
Mus musculus [2] = test: Anti-diabetic activity against nude mouse xenografted with mouse IGF-1R-Sal cells assessed as insulin level at 3.125 mg/kg, po administered for 2 hrs by ELISA analysis (Rvb= 0.39 +/- […]); assay type: functional
Rh41 [3] = test: Antitumor activity against human Rh41 cells xenografted in nude mouse assessed as tumor growth inhibition at 3.1 to 25 mg/kg, po administered for 14 days relative to control; assay type: functional; conditions: dose 3.1-25 mg/kg, time 14 day
GEO [4] = test: Antitumor activity against human GEO cells xenografted in nude mouse assessed as tumor growth delay time at 6.25 mg/kg, po administered for 3 days in presence of cetuximab at 0.125 mg/kg relative to control; assay type: functional; conditions: time 3 day
Mus musculus [5] = test: Anti-diabetic activity against nude mouse xenografted with mouse IGF-1R-Sal cells assessed as increased serum glucose level at 3.125 mg/kg, po administered for 2 hrs by oral glucose tolerance test (Rvb= 97.40 +/- 5.0 mg/dl); assay type: functional
Mus musculus [6] = test: Anti-diabetic activity against nude mouse xenografted with mouse IGF-1R-Sal cells assessed as increased serum glucose level at 12.5 mg/kg, po administered for 2 hrs by oral glucose tolerance test (Rvb= 97.40 +/- 5.0 mg/dl); assay type: functional
GEO [7] = test: Antitumor activity against human GEO cells xenografted in nude mouse assessed as tumor growth inhibition at 25 mg/kg, po administered for 3 days in presence of cetuximab at 0.25 mg/kg relative to control; assay type: functional; conditions: 72 h, time 3 day, read-out: TGI
GEO [8] = test: Antitumor activity against human GEO cells xenografted in nude mouse assessed as tumor growth inhibition at 12.5 mg/kg, po administered for 17 days relative to control; assay type: functional; conditions: 408 h, time 17 day, read-out: TGI
[9] = Plasma concentration in nude mouse xenografted with mouse IGF-1R-Sal cells at 3.125 mg/kg, po administered for 2 hrs by LC-MS/MS analysis; assay type: ADME, organism-based
[10] = Toxicity in nude mouse xenografted with human GEO cells assessed as body weight loss at 6.25 mg/kg, po administered for 17 days; assay type: organism-based; conditions: in vivo, 408 h, time 17 day
[11] = Toxicity in nude mouse xenografted with human GEO cells assessed as mortality at 25 mg/kg, po administered for 3 days in presence of cetuximab at 0.125 mg/kg relative to control; assay type: organism-based; conditions: in vivo, time 3 day
[12] = Toxicity in nude mouse xenografted with human GEO cells assessed as body weight loss at 25 mg/kg, po administered for 17 days; assay type: organism-based; conditions: in vivo, 408 h, time 17 day

C[C@@]1(C(=O)Nc2ccc(F)nc2)CCCN1c1nc(Nc2cc(C3CC3)n[nH]2)c2cccn2n1 [BMS-754807]
Activity (Rh41 [1]): Active
Activity (Mus musculus [2]): 2 ng/mL
TGI (Rh41 [3]): 65%
Time (GEO [4]): 20 days
Activity (Mus musculus [5]): 91 mg/dL
Activity (Mus musculus [6]): 89 mg/dL
inhibition in vivo at 25 mg/kg (GEO [7]): 88%
inhibition in vivo at 12.5 mg/kg (GEO [8]): 38%
concentration at 2 h [9]: 7 nM
Activity [10]: -0.4 g
mortality at 72 h [11]: 0%
Activity [12]: -1.5 g
